Reference: ChEMBL document CHEMBL1671716, “Antimicrobial susceptibility patterns for recent clinical isolates of anaerobic bacteria in South Korea” (2010)
Values after ≈ are worked out from the molar mass of the structure shown.

Tests used:
Clostridium perfringens = assay: Antimicrobial activity against Clostridium perfringens after 48 hrs by agar dilution method; type: functional
Clostridioides difficile = assay: Antimicrobial activity against Clostridium difficile after 48 hrs by agar dilution method; type: functional

CN[C@H](CC(C)C)C(=O)N[C@H]1C(=O)N[C@@H](CC(N)=O)C(=O)N[C@H]2C(=O)N[C@H]3C(=O)N[C@H](C(=O)N[C@H](C(=O)O)c4cc(O)cc(O)c4-c4cc3ccc4O)[C@H](O)c3ccc(c(Cl)c3)Oc3cc2cc(c3O[C@@H]2O[C@H](CO)[C@@H](O)[C@H](O)[C@H]2O[C@H]2C[C@](C)(N)[C@H](O)[C@H](C)O2)Oc2ccc(cc2Cl)[C@H]1O [VANCOMYCIN]
MIC50 (Clostridium perfringens): 0.5 µg/mL (≈ 0.345 µM) | MIC90 (Clostridium perfringens): 0.5 µg/mL (≈ 0.345 µM) | MIC50 (Clostridioides difficile): 0.5 µg/mL (≈ 0.345 µM) | MIC90 (Clostridioides difficile): 2 µg/mL (≈ 1.38 µM)
